Legend:
[1] = UPLC retention on RP-BEH-C18 column (analyte hydrophobicity); type: physicochemical; details: for RT (retention time on RP-BEH-C18 UPLC column): chromatographic, BEH-C18 2.1 × 150 mm, 1.7 µm, 0.4 mL/min, 45 °C, A aqueous HCOOH (0.1%), B MeCN with HCOOH (0.1%), 93% B to 100% B in 4 min, ESI-TOF-MS, uncalibrated, link to hydrophobicity only implicit
Method: Purification of cereulide (1) and isocereulides H–N (2–8): The purification of 1–8 from the reduced ethanol extract was performed according to the literature. In brief, the extract was diluted with H2O (1:10) for better retention of the target analytes on the column material and pre-fractionated via C18 SPE cartridges (60 mL, 10 g; Chromabond, Macherey-Nagel, Düren, Germany). All obtained methanolic fractions were combined and the solvent was reduced to approx. 150 mL using a rotary evaporator and stored at −20 °C until further use for compound isolation. The sample material was separated via semi-preparative HPLC into 10 fractions (Supplementary Materials, Figure S1), for which the respective eluates were combined and their solvents removed through a rotary evaporator. The obtained HPLC fractions were screened for cereulide (1) and its isocereulides using a UPLC-TOF-MS system Synapt G2-S (Waters, Manchester, UK) in the positive electrospray mode equipped with a 2.1 × 150 mm, 1.7 µm BEH-C18 column (Waters, Manchester, UK) at a flow rate of 0.4 mL/min at 45 °C using aqueous HCOOH (0.1%) as solvent A and MeCN with HCOOH (0.1%) as solvent B. Elution was performed by starting at 93% B, increasing to 100% B in 4 min, holding at 100% B for 2 min, followed by decreasing to 93% in 0.1 min and holding at 93% B for 0.9 min.

[2] = system: HEp-2 cells; type: cell-based
Text: (§1) Determination of EC50 of cereulide (1) and isocereulides H–N (2–8) via HEp-2 cell assay. The testing principle of the HEp-2 cell assay is based on the uncoupling of ATP synthesis, effectuated by supplemented ionophores, resulting in a facilitated ion influx into the mitochondria, thus disrupting the membrane potential. As a result, the 50% effective concentration (EC50) gives the amount of toxin required to inactivate half of the viable cells.
HEp-2 cell assay: The cytotoxic activity of 1–8 was determined by quantifying their EC50 using HEp-2 cells, as described previously. In a 96-well microtiter plate assay, a 2% ethanolic minimum essential medium (MEM-Earle’s), containing 2% FCS, 1% sodium pyruvate and 0.4% penicillin-streptomycin (v/v each), was provided to perform stepwise dilution of each toxin solution. As an overall toxicity reference and cell control, the structurally related toxin valinomycin was used analogously, in a range of approx. 2–500 ng/mL. The composition of each toxin sample is listed in the Supplementary Materials, Table S2. The HEp-2 cells were freed from their medium and washed with 5 mL of PBS twice and 5 mL of 0.05% Trypsin/EDTA solution was added. After incubation (8 min, 37 °C, 5% CO2), 10 mL of MEM was added and the cells were resuspended, transferred to a falcon tube and centrifuged (RT, 7 min, 700 rpm). The supernatant was discarded, the cell pellet was suspended in 5 mL of MEM and the cell count was determined via Trypan blue. Finally, the cell count was set to 6.7 × 10^5 cells/mL MEM (1 × 10^5 cells/well); a total of 150 µL of this solution was spiked to each well and the plate was incubated (48 h, 37 °C, 5% CO2). After removing 100 µL of the medium, 10 µL of the cell proliferation reagent WST (cell counting kit) was added and shaken for 1 min (400 rpm) and the plate was incubated (20 min, 37 °C, 5% CO2). To determine cell viability, the extinction at 450 nm/620 nm (TECAN infinite F200) was measured. The respective EC50 values for each sample were then calculated from the obtained dose-response curves and the corresponding applied sample dilution and concentration.
An aliquot of 2 µL of the respective samples with ^13C6-cereulide as an internal standard (100 ng/mL) was applied for the quantitation of 1–8 in the samples, later applied in the HEp-2 cell assay according to the literature, performed on a Waters Xevo TQ-S mass spectrometer (Waters) coupled to an Acquity UPLC i-class core system (Waters) with a binary solvent manager, sample manager and column oven. The system was operated with MassLynx 4.1 SCN 813 Software (Waters) and data processing and analysis were performed with TargetLynx (Waters). The recently reported quantitation method for cereulide and isocereulides A-G [33] was extended by implementing the ammonium adducts of 2–8 using the multiple reaction monitoring mode with the following parameters. Compounds 2, 3 and 7 m/z 1156.6 → qualifier m/z 172.2, 314.2; quantifier m/z 357.2. Compound 4 m/z 1142.6 → qualifier m/z 172.2, 314.2; quantifier m/z 357.2. Compound 5 m/z 1184.6 → qualifier m/z 172.2, 314.2; quantifier m/z 357.2. Compounds 6 and 8 m/z 1186.6 → qualifier m/z 172.2, 314.2; quantifier m/z 357.2. The calibration for the quantitation of the analytes consisted of mixtures of cereulide (0.1–1000 ng/mL in EtOH) and ^13C6-cereulide (100 ng/mL) as an internal standard. Mixtures were prepared from stock solutions and analyzed in triplicate by UPLC-MS/MS. The calibration curve was obtained by plotting the peak area ratios of analytes to internal standard against the concentration ratios of analyte to internal standard for each solution and applying linear regression (origin excluded) to give the equation y=2.5174x+0.0061 with R^2=0.9998 . For 1 and ^13C6-cereulide, the quantifier mass transitions were selected as m/z 1170.7 → m/z 357.2 and m/z 1176.7 → m/z 358.2, respectively. All mass spectrometric and chromatographic parameters were used as reported.

[3] = system: HEp-2 cells; details: cited from earlier work
Text: At this point, we can only speculate about the magnitude of the impact that isocereulides have on the overall toxicity of (iso)cereulide-containing B. cereus cell cultures.

[4] = cited from earlier work
Text: . Cereulide (1) is composed of 12 alternatingly placed α-amino and α-hydroxy acids thought to form the three-time circularly repeating tetradepsipeptide unit D-O-Leu-D-Ala-L-O-Val-L-Val (Figure 1), leading to its characteristic dodecadepsipeptide structure in a rectangular cylindrical shape. Because of its uniqu ...

[5] = system: blood–brain barrier; details: porcine model; cited from earlier work
Text: (§2) Similar to the antibiotic valinomycin, cereulide unfolds its toxicity potential due to a high affinity for complex formation with alkali metal ions (Li^+, Na^+ and K^+) and ammonium ions, resulting in its biological function as a strong K^+ ionophore and as a K^+ transporter, resulting in cell membrane depolarization.

[6] = system: 5–HT3 receptors; details: lower concentrations; stimulation of the vagus afferent by binding to 5–HT3 receptors in the duodenum; cited from earlier work
Text: as §2

[7] = cited from earlier work; remark: listed apart in the source
Text: as §1

Molecule	RT (retention time on RP-BEH-C18 UPLC column) [1] [min]	further results
isocereulide G	4.56	–
isocereulide C	2.52	–
D-O-Leu-D-Ala-L-O-Val-L-Val-D-O-Leu-Gly-L-O-Val-L-Val-D-O-Ile-D-Ala-L-O-Val-L-Val (lariat or depsi) [Isocereulide M, isocereulide M, cereulide variant, D-Ala by Gly and D-O-Leu by D-O-Ile]	3.07	–
isocereulide J	3.57	–
CC(C)C[C@H]1OC(=O)[C@H](C(C)C)NC(=O)[C@H](C(C)C)OC(=O)CNC(=O)[C@@H](CC(C)C)OC(=O)[C@H](C(C)C)NC(=O)[C@H](C(C)C)OC(=O)[C@@H](C)NC(=O)[C@@H](CC(C)C)OC(=O)[C@H](C(C)C)NC(=O)[C@H](C(C)C)OC(=O)[C@@H](C)NC1=O [Isocereulide H, isocereulide H]	2.88	absolute EC50 ([2]; 48 h): 6.62 ng/mL; decreased toxicity effect on HEp-2 cells compared to 1 ([2]; HEp-2 cells, 48 h): 63%
isocereulide A	4.83	higher toxicity than cereulide [3]: approximately 8 fold
isocereulide K	4.59	cytotoxicity compared to 1 ([2]; HEp-2 cells, 48 h): 69%; hydrophobicity compared with 1 (in words) [1]: more hydrophobic than 1
isocereulide F	5.00	–
isocereulide L	2.76	–
isocereulide E	3.83	–
isocereulide N	2.76	–
CC[C@@H]1NC(=O)[C@H](C(C)C)OC(=O)[C@@H](C)NC(=O)[C@@H](CC(C)C)OC(=O)[C@H](C(C)C)NC(=O)[C@H](C(C)C)OC(=O)[C@@H](C)NC(=O)[C@@H](CC(C)C)OC(=O)[C@H](C(C)C)NC(=O)[C@H](C(C)C)OC(=O)[C@@H](C)NC(=O)[C@@H](CC(C)C)OC1=O [Isocereulide I, isocereulide I]	3.40	absolute EC50 ([2]; 48 h): 1.75 ng/mL; toxicity relative to cereulide (1) (reciprocal EC50, cereulide set to 1) ([2]; HEp-2 cells, 48 h): 1.4 fold; hydrophobicity compared with 1 (in words) [1]: slightly more hdrophilic
isocereulide B	3.83	–
isocereulide D	2.88	–
CC(C)C[C@H]1OC(=O)[C@H](C(C)C)NC(=O)[C@H](C(C)C)OC(=O)[C@@H](C)NC(=O)[C@@H](CC(C)C)OC(=O)[C@H](C(C)C)NC(=O)[C@H](C(C)C)OC(=O)[C@@H](C)NC(=O)[C@@H](CC(C)C)OC(=O)[C@H](C(C)C)NC(=O)[C@H](C(C)C)OC(=O)[C@@H](C)NC1=O [Cereulide, cereulide]	4.25	stability to temperatures, pH values and enzymes [4]: inert to a wide range of temperatures, pH values and enzymes; crossing of the blood–brain barrier [5]: can cross the blood–brain barrier; emetic effect [6]: provoke vomiting; absolute EC50 ([2]; 48 h): 2.44 ng/mL; toxic effect relative to valinomycin at an equally applied concentration ([2]; HEp-2 cells, from EC50 values, data not shown): 13.7 times; increased toxicity compared to valinomycin [7]: approx. 15 fold
